Laboratory results: EP0268871A1, “Quinoline derivatives” (priority 1986, dated 1988)

Target: acetylcholinesterase (Homo sapiens, UniProt P22303)
Assay: Determination of inhibitory activity against acetylcholinesterase (photometric method of Ellman et al.)
Assay type: biochemical
Details: Relative ratio = IC50 (molar) of Tacrine / IC50 (molar) of test compound; IC50 = concentration of drug which inhibits 50% level of control
Experimental: Determination of inhibitory activity against acetylcholinesterase
The inhibitory activity against acetylchalinesterase of the compounds provided with the present invention was determined by the photometric methods described in Ellman et al., Biochemical Pharmacology, Vol. 7, p.

acetylcholinesterase, sequence (P22303 32-614): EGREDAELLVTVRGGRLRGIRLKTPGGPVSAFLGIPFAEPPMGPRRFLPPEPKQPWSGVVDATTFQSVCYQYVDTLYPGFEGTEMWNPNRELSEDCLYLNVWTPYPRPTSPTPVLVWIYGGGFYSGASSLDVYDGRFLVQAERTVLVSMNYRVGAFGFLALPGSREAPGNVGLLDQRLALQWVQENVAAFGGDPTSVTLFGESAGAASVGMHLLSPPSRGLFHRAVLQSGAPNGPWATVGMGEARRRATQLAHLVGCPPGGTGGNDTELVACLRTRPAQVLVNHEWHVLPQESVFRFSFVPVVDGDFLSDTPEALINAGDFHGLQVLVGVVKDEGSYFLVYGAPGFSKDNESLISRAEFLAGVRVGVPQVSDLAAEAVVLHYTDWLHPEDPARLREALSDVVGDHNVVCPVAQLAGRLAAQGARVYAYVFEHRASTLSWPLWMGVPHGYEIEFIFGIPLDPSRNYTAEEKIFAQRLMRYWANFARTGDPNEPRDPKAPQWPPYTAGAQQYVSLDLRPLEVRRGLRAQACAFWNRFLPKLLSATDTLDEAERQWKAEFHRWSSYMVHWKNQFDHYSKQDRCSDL

Row | SMILES | Acetylcholinesterase Inhibition (reative ratio*)
1 | Nc1c2c(nc3cc(F)ccc13)CCCC2 [Example 2, 9-amino-6-fluoro-1,2,3,4-tetrahydroacridine] | 2.53
2 | Nc1c2c(nc3cccc(F)c13)CCC2 [Example 6] | 1.75
3 | Cc1cccc2nc3c(c(N)c12)CC(C)C3 (centres unmarked) [Example 14] | 1.27
4 | Nc1c2c(nc3cc(Cl)ccc13)C1C=CC2CC1 (centres unmarked) [Example 94] | 2.22
5 | Nc1c2c(nc3cc(C(F)(F)F)ccc13)CCCC2 [compound 36] | 1.15
6 | Nc1c2c(nc3cc(F)c(F)cc13)CCCCC2 [compound 38] | 2.04
7 | Cc1cccc2nc3c(c(N)c12)CSCC3 [compound 112] | 1.30
8 | Nc1c2c(nc3cccc(F)c13)CSCC2 [compound 118] | 3.13
9 | Nc1c2c(nc3cccc(Cl)c13)CSCC2 [compound 149] | 4.12
10 | Nc1c2c(nc3c(F)cccc13)CCCCC2 [compound 156] | 2.50
11 | Nc1c2c(nc3cccc(F)c13)CCCC2 [compound 157] | 3.60
